Data reported in ChEMBL document CHEMBL3399976, “Dual inhibition of allosteric mitogen-activated protein kinase (MEK) and phosphatidylinositol 3-kinase (PI3K) oncogenic targets with a bifunctional inhibitor” (Bioorg Med Chem, 2015).
pIC50: −log10 of the molar value. Activity calls are given as the source filed them. No cut-off for these calls is given here.

Tests used:
A549 [1] = test: Inhibition of PI3K in human A549 cells assessed as reduction in pAkt level at 10 uM after 1 hr by Western blotting analysis; format: cell-based
Mus musculus [2] = organism: Mus musculus; test: Inhibition of PI3K in mouse lung fibroblast assessed as reduction in pAkt level at 10 uM after 1 hr by Western blotting analysis
[3] = molecular target: Dual specificity mitogen-activated protein kinase kinase 1 (Mus musculus) (UniProt P31938); test: Inhibition of MEK1 in mouse lung fibroblast assessed as reduction in pErk1/2 level at 10 uM after 1 hr by Western blotting analysis
PANC-1 [4] = test: Inhibition of PI3K in human PANC1 cells assessed as reduction in pAkt level at 10 uM after 1 hr by Western blotting analysis; format: cell-based
[5] = Inhibition of PI3K (unknown origin) by TR-FRET assay; set-up: species or system Homo sapiens
[6] = Cytotoxicity against mouse lung fibroblast at 10 to 25 uM after 24 hrs by Alamar Blue assay; format: cell-based
[7] = molecular target: T1, Dual specificity mitogen-activated protein kinase kinase 1 (Homo sapiens, UniProt Q02750); test: Inhibition of MEK1 in human A549 cells assessed as reduction in pErk1/2 level at 25 uM after 1 hr by Western blotting analysis; format: cell-based
A549 [8] = test: Inhibition of PI3K in human A549 cells assessed as reduction in pAkt level at 25 uM after 1 hr by Western blotting analysis; format: cell-based
A549 [9] = test: Cytotoxicity against human A549 cells at 10 to 25 uM after 24 hrs by Alamar Blue assay; format: functional
PANC-1 [10] = test: Inhibition of PI3K in human PANC1 cells assessed as reduction in pAkt level at 25 uM after 1 hr by Western blotting analysis; format: cell-based
Aurora kinase B = Aurora kinase B (Homo sapiens, UniProt Q96GD4); test: Inhibition of AurB (unknown origin)
[11] = Cytotoxicity against human PANC1 cells at 10 to 25 uM after 24 hrs by Alamar Blue assay; format: functional, PANC-1
[12] = molecular target: Dual specificity mitogen-activated protein kinase kinase 1 (Mus musculus) (UniProt P31938); test: Inhibition of MEK1 in mouse lung fibroblast assessed as reduction in pErk1/2 level after 1 hr by Western blotting analysis
[13] = molecular target: T1, Dual specificity mitogen-activated protein kinase kinase 1; test: Inhibition of MEK1 in human A549 cells assessed as reduction in pErk1/2 level after 1 hr by Western blotting analysis; format: cell-based
PANC-1 [14] = test: Inhibition of PI3K in human PANC1 cells assessed as reduction in pAkt level after 1 hr by Western blotting analysis; format: cell-based
[15] = Inhibition of ERK (unknown origin); set-up: species or system Homo sapiens
Mus musculus [16] = organism: Mus musculus; test: Inhibition of PI3K in mouse lung fibroblast assessed as reduction in pAkt level at 25 uM after 1 hr by Western blotting analysis
[17] = molecular target: T1, Dual specificity mitogen-activated protein kinase kinase 1; test: Inhibition of MEK1 in human PANC1 cells assessed as reduction in pErk1/2 level after 1 hr by Western blotting analysis; format: cell-based; conditions: PANC-1
[18] = molecular target: Dual specificity mitogen-activated protein kinase kinase 1 (Mus musculus) (UniProt P31938); test: Inhibition of MEK1 in mouse lung fibroblast assessed as reduction in pErk1/2 level at 25 uM after 1 hr by Western blotting analysis
Mus musculus [19] = organism: Mus musculus; test: Inhibition of PI3K in mouse lung fibroblast assessed as reduction in pAkt level after 1 hr by Western blotting analysis
[20] = molecular target: Epidermal growth factor receptor (Homo sapiens, UniProt P00533); test: Inhibition of EGFR (unknown origin)
[21] = molecular target: T1, Dual specificity mitogen-activated protein kinase kinase 1; test: Inhibition of MEK1 in human PANC1 cells assessed as reduction in pErk1/2 level at 25 uM after 1 hr by Western blotting analysis; format: cell-based; conditions: PANC-1
A549 [22] = test: Inhibition of PI3K in human A549 cells assessed as reduction in pAkt level after 1 hr by Western blotting analysis; format: cell-based
[23] = molecular target: Protein kinase C alpha type (Homo sapiens, UniProt P17252); test: Inhibition of PKC-alpha (unknown origin)

Sequence of Dual specificity mitogen-activated protein kinase kinase 1 (Mus musculus) (P31938 whole entry): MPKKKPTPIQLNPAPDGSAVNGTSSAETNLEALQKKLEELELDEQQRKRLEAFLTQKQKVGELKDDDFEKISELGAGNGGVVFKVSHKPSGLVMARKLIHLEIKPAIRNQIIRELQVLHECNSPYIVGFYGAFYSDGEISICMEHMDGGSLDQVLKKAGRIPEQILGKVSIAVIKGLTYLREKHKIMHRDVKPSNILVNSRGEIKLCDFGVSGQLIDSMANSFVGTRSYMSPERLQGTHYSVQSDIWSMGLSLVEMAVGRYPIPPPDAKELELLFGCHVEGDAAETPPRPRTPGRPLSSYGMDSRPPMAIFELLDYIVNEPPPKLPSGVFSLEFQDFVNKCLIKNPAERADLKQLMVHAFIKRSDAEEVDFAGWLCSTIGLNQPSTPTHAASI
T1 sequence (Q02750 whole entry): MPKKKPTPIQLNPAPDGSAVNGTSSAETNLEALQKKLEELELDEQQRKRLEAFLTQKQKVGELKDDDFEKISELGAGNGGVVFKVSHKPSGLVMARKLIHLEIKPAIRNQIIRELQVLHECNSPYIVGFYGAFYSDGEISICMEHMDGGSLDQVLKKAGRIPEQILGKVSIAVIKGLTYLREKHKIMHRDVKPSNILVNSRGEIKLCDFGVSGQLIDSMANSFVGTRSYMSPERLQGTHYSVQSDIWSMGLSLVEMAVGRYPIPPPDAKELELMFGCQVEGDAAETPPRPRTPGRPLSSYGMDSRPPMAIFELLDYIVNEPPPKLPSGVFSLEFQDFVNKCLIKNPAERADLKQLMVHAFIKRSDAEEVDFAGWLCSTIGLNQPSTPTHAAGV
Sequence of Epidermal growth factor receptor (P00533 whole entry): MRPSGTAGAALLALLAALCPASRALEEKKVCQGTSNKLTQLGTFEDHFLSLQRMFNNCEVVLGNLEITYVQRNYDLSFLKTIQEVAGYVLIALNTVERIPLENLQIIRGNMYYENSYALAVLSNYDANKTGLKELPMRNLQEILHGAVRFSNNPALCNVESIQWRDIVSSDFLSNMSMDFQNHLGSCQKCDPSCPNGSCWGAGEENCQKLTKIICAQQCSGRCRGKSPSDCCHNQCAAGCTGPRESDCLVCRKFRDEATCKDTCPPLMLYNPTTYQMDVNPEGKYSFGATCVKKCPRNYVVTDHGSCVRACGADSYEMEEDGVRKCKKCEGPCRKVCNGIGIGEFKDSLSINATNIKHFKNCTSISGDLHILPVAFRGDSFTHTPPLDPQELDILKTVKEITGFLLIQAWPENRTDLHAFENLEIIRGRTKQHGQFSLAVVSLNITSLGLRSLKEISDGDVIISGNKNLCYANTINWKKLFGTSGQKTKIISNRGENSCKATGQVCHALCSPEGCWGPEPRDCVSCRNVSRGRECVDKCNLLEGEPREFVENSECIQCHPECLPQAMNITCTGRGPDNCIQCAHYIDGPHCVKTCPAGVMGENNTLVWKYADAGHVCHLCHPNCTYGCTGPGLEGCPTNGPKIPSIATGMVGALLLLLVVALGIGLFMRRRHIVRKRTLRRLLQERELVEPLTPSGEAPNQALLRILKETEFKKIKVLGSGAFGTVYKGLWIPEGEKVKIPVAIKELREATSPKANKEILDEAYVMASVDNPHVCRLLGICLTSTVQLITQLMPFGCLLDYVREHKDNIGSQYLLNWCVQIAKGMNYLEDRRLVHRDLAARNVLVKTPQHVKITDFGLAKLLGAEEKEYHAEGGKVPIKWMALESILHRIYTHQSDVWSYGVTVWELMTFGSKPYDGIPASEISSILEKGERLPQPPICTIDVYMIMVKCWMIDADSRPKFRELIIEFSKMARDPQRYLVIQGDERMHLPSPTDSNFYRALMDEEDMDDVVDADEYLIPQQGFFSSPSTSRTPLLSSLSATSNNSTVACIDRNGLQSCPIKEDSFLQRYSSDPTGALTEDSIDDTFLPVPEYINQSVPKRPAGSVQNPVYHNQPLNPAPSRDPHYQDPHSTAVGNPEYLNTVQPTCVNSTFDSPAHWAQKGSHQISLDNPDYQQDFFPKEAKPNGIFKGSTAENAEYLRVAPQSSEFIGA
Sequence of Aurora kinase B (Q96GD4 whole entry): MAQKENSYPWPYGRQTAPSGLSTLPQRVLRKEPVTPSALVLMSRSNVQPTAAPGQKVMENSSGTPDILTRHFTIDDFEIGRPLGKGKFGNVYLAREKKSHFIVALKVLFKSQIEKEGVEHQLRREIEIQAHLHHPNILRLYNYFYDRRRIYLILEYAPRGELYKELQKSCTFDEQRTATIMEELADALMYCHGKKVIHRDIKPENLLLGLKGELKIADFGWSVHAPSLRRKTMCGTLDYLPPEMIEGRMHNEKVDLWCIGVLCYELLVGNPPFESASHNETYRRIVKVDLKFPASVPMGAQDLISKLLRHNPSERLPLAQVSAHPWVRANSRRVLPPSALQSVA

SMILES: FC(F)c1nc2ccccc2n1-c1nc(N2CCOCC2)nc(N2CCOCC2)n1
- inhibition (A549 [1]): Active
- inhibition (Mus musculus [2]): Active
- inhibition [3]: inactive
- inhibition (PANC-1 [4]): Active

SMILES: CNS(=O)(=O)Nc1nccc(Cc2c(C)c3ccc(Oc4ncccn4)cc3oc2=O)c1F
- inhibition (A549 [1]): inactive
- inhibition (Mus musculus [2]): inactive
- inhibition [3]: Active
- inhibition (PANC-1 [4]): inactive

SMILES: NCCCCCC(=O)N1CCN(c2nc(N3CCOCC3)nc(-n3c(C(F)F)nc4ccccc43)n2)CC1
- pIC50 [5]: > 7.00

SMILES: O=C(NOC[C@H](O)CO)c1ccc(F)c(F)c1Nc1ccc(I)cc1F
- inhibition (A549 [1]): inactive
- inhibition (Mus musculus [2]): inactive
- inhibition [3]: Active
- inhibition (PANC-1 [4]): inactive

SMILES: Cc1c(Cc2cccc(N(C)S(=O)(=O)CCCNCCCCCC(=O)N3CCN(c4nc(N5CCOCC5)nc(-n5c(C(F)F)nc6ccccc65)n4)CC3)c2)c(=O)oc2cc(OC(=O)N(C)C)ccc12
- Activity [6]: Non-toxic
- inhibition [7]: Active
- inhibition (A549 [8]): Active
- Activity (A549 [9]): 50%
- inhibition (PANC-1 [10]): Active
- pIC50 (Aurora kinase B): < 5.00
- Activity [11]: 50%
- inhibition [12]: Dose-dependent effect
- inhibition [13]: Dose-dependent effect
- inhibition (PANC-1 [14]): Dose-dependent effect
- pIC50 [15]: < 5.00
- inhibition (Mus musculus [16]): Active
- inhibition [17]: Dose-dependent effect
- pIC50 [5]: 6.76
- inhibition [18]: Active
- inhibition (Mus musculus [19]): Dose-dependent effect
- pIC50 [20]: < 5.00
- inhibition [21]: Active
- inhibition (A549 [22]): Dose-dependent effect
- pIC50 [23]: < 5.00

SMILES: O=C(CCCCC[N+](=O)[O-])N1CCN(c2nc(N3CCOCC3)nc(-n3c(C(F)F)nc4ccccc43)n2)CC1
- pIC50 [5]: < 6.00
